Format in all cases: biochemical
For test [1], the system named is Leukozyten-Enzyme. As to the kind of experiment: Acceleration of cleavage of N-Tosyl-L-alanin-3-hydroxy-5-phenylpyrrolester by leukocytes (photometric, 330 nm). The note with it: 250 µl N-Methylpyrrolidon. Here is the method:
(§1) Zu 2.25 ml des betreffenden Puffers fügte man je nach Substrat 50 - 250 µl N-Methylpyrrolidon als Lösungsvermittler und ergänzte das Volumen der Lösung mit Puffer auf 2.5 ml. Dann wurden 5 µl einer Lösung von 5 - 100 mg n-Undecanol in 1 ml N-Methylpyrrolidon sowie 5 µl einer Lösung von 2 mg Natriumdodecylsulfat (SDS) bzw. 4 mg der anderen Detergentien in 1 ml Wasser oder N-Methylpyrrolidon zu der Reaktionsmischung zugegeben. Nach gutem Durchmischen wurden 5 µl einer 10-1 molaren Substratlösung in N-Methylpyrrolidon, Dimethylformamid oder Dimethylsulfoxid in die Reaktionslösung gegeben und nach der Zugabe der Leukozytensuspension der Extinktionsanstieg bei der angegebenen Wellenlänge kontinuierlich verfolgt. Die Spontanhydrolyse des Substrats wird in einem Paralellansatz ohne Leukozytenzugabe anhand des Extinktionsanstiegs bestimmt.
(§2) Für die Bestimmung der Umsetzungsgeschwindigkeit wird der in der Enzymreaktion erhaltene Extinktionsanstieg um den für die Spontanhydrolyse ermittelten Betrag vermindert. Absolutwerte für die Substratspaltung (Mol. Min.^-1) können aus den Extinktionsdifferenzen mit Hilfe der molaren Extinktionskoeffizienten errechnet werden.
Beschleunigung der Spaltung von N-Tosyl-L-alanin-3-hydroxy-5-phenylpyrrolester mit Leukozyten in 0.1 M Tris-(hydroxymethyl)-aminomethan-Salzsäurepuffer (pH 8.8) in Gegenwart von 250 µl N-Methylpyrrolidon durch Zusätze von Aktivatoren und Detergentien.
Beschleunigung der Spaltung von N-Tosyl-L-alanin-3-hydroxy-5-phenylpyrrolester mit Leukozyten in diversen 0.1 M. Puffern (pH 8.4) unter Zusatz von 250 µl N-Methylpyrrolidon und Aktivatoren sowie Detergentien.

Test [2] has as its system Leukozyten-Enzyme. As to the kind of experiment: Acceleration of cleavage of N-Tosyl-L-alanin-5-hydroxy-1,2-benzisothiazolylester by leukocytes (photometric, 325 nm). The note with it: Aktivator 125 µg/Test, Tris-HCl pH 8.4, 100 µl N-Methylpyrrolidon. As to the method:
as §1, §2
Beschleunigung der Spaltung von N-Tosyl-L-alanin-5-hydroxy-1,2-benzisothiazolylester mit Leukozyten in 0.1 M Tris-(hydroxymethyl)-aminomethan-Salzsäurepuffer (pH 8.4) in Gegenwart von 100 µl N-Methylpyrrolidon durch Zusätze von Aktivatoren und Detergentien.

The test system of test [3] is Leukozyten-Enzyme. As to the kind of experiment: Acceleration of enzymatic cleavage of N-Tosyl-L-alanin-indoxylester by leukocytes (photometric, 360 nm). The settings on record: for relative Spaltungsgeschwindigkeit: 0.1 M Tris-HCl buffer pH 8.8, 360 nm; for rel.Geschwindigk.der Enzymreaktion, bezogen auf Decanol (0,125 µl/Test) = 1: 50 µl N-Methylpyrrolidon, SDS 10 µg/Test, Tris-HCl pH 8.8. As to the method:
as §1, §2
Beschleunigende Wirkung von Alkanolen auf die enzymatische Spaltung von N-Tosyl-L-alanin-indoxylester mit Leukozyten in 0.1 M Tris-(hydroxymethyl)-aminomethan-Salzsäure-Puffer pH 8.8 unter Zusatz von SDS bzw. Polylysin mit einem mittleren Molekulargewicht von 14 000 (Messung bei 360 nm).
Konzentrationsabhängigkeit der beschleunigenden Wirkung von n-Undecanol auf die Spaltung von N-Tosyl-L-alanin-indoxylester mit Leukozyten in Gegenwart von 50 µl N-Methylpyrrolidon/Testansatz und 10 µg/Test SDS in 0.1 M Tris-(hydroxymethyl)-aminomethan-Salzsäurepuffer (pH 8.8).

Test [4] concerns Leukozyten-Enzyme. Kind of test: Activation of leukocyte enzymes, general statement in the description. The note with it: statement in words; compared with Hexanol, Heptanol, Octanol, Nonanol, Decanol, Dodecanol, Tridecanol of EP-A 14 929. Here is the method: as §1, §2
The mark [5] stands for this setting: Aktivator 125 µg/Test, SDS 10 µg/Test, Tris-HCl pH 8.8.
Where [6] appears, read: Aktivator 125 µg/Test, Zephirol 20 µg/Test, Tris-HCl pH 8.8.
[7] abbreviates: Puffer Borat 0.1 M pH 8.4, Aktivator 0.125 µl bzw. 125 µg je Test, SDS 10 µg/Test.
[8] abbreviates: Puffer Borat 0.1 M pH 8.4, Aktivator 0.125 µl bzw. 125 µg je Test, no detergent.
Setting [9] is: Puffer Carbonat-Hydrogencarbonat 0.1 M pH 8.4, Aktivator 0.125 µl bzw. 125 µg je Test, SDS 10 µg/Test.
[10] abbreviates: Puffer Phosphat 0.1 M pH 8.4, Aktivator 0.125 µl bzw. 125 µg je Test, SDS 10 µg/Test.
[11] abbreviates: Puffer Tris 0.1 M pH 8.4, Aktivator 0.125 µl bzw. 125 µg je Test, BDTA 20 µg/Test.
Setting [12] is: Puffer Tris 0.1 M pH 8.4, Aktivator 0.125 µl bzw. 125 µg je Test, Poly-L-Arg (40000) 20 µg/Test.
Setting [13] is: Puffer Tris 0.1 M pH 8.4, Aktivator 0.125 µl bzw. 125 µg je Test, SDS 10 µg/Test.
Setting [14] is: Puffer Tris 0.1 M pH 8.4, Aktivator 0.125 µl bzw. 125 µg je Test, no detergent.
[15] abbreviates: Detergens Poly-L-Lys (mean MW 14 000) 20 µg/Test.

Structures are written as SMILES. Entries after “also recorded” stand apart in the source; their conditions may differ.

For `CCCCCCCCCCO` [n-Decanol], the “relative Spaltungsgeschwindigkeit” value in test [1] (setting [5]) came to 1.0; in test [1] (setting [6]), 1.27; in test [1] (Puffer Borat 0.1 M pH 8.4, Aktivator 0.125 µl bzw. 125 µg je Test, Poly-DL-Lys(37000) 20 µg/Test), 3.15; in test [1] (setting [7]) it was 9.0; in test [1] (setting [8]), 4.9; in test [1] (setting [9]), 5.6. The “relative Spaltungsgeschwindigkeit” value in test [1] (setting [10]) is on record as 12.0; in test [1] (setting [11]) it was 1.05; in test [1] (setting [12]), 3.7; in test [1] (setting [13]), 1; in test [1] (setting [14]) it was 0.9; in test [2] (Poly-L-Lys(14000) 20 µg/Test), 4.25. Also, the “relative Spaltungsgeschwindigkeit” value in test [2] (Poly-L-Orn(30000) 20 µg/Test) is 3.8; in test [2] (SDS 10 µg/Test), 1.0; in test [2] (no detergent), 1.9; in test [3] (setting [15]), 3.2; in test [3] (Detergens SDS 10 µg/Test), 1.
Regarding `CCCCCCCCCCCCO` [n-Dodecanol], the “relative Spaltungsgeschwindigkeit” value in test [1] (setting [7]) is given as 9.0; in test [3] (Detergens SDS 10 µg/Test), 0.55.
As for `CCCCCCCCCO` [n-Nonanol], the “relative Spaltungsgeschwindigkeit” value was determined as 3.0 in test [1] (setting [7]) and 0.6 in test [1] (setting [13]).
Regarding `CCCCCCCCCCCCCO` [n-Tridecanol], the “relative Spaltungsgeschwindigkeit” value in test [3] (Detergens SDS 10 µg/Test) was 0.75.
Turning to `CCCCCCCCCCCCOS(=O)(=O)O` [SDS, Natriumdodecylsulfat], the “relative Spaltungsgeschwindigkeit” value in test [1] (Puffer Borat 0.1 M pH 8.4, no activator, detergent SDS alone 10 µg/Test) was found to be 2.8; in test [1] (Puffer Tris 0.1 M pH 8.4, no activator, detergent SDS alone 10 µg/Test), 0.8.
In the case of `CCCCCCCCCCCO` [n-Undecanol], the “relative Spaltungsgeschwindigkeit” value in test [1] (setting [5]) was 3.3; in test [1] (setting [6]) it was 2.6; in test [1] (setting [7]), 15.2; in test [1] (setting [8]), 5.6; in test [1] (setting [9]), 6.6; in test [1] (setting [10]), 17.3. Also, the “relative Spaltungsgeschwindigkeit” value in test [1] (setting [11]) is recorded as 3.55; in test [1] (setting [12]), 6.55; in test [1] (setting [13]) it was 2.1; in test [1] (setting [14]), 1.7; in test [2] (Poly-L-Lys(14000) 20 µg/Test), 8.2; in test [2] (Poly-L-Orn(30000) 20 µg/Test), 7.4. For the same compound, the “relative Spaltungsgeschwindigkeit” value in test [2] (SDS 10 µg/Test) came to 2.5; in test [2] (no detergent), 3.1; in test [3] (setting [15]), 6.5; in test [3] (Detergens SDS 10 µg/Test), 1.85. Moreover, in test [4], the “Aktivierung der Leukozyten-Enzyme” value was “stark aktiviert; also recorded: alle vorgenannten Alkohole in der Aktivierung der Leukozyten- Enzyme übertrifft”. For the same compound, the “rel.Geschwindigk.der Enzymreaktion, bezogen auf Decanol (0,125 µl/Test) = 1” value in test [3] (0,2 µl Undecanol in test solution) was 2,1; in test [3] (0,5 µl Undecanol in test solution), 3,1; in test [3] (0,25 µl Undecanol in test solution), 3,2; in test [3] (0,025 µl Undecanol in test solution) it was 0,65; in test [3] (0,075 µl Undecanol in test solution) it was 1,5; in test [3] (0,125 µl Undecanol in test solution) it was 1,75.
